According to ChEMBL document CHEMBL5370626, “Targeting the Subpocket Enables the Discovery of Thiadiazole-Pyridazine Derivatives as Glutaminase C Inhibitors” (ACS Med Chem Lett, 2023):
The source made the active and inactive calls. No cut-off for these calls is given here.

Test system: A549
Assay: Antitumor activity against human A549 cells xenografted in Balb/c nude mouse assessed as tumor growth inhibition at 100 mg/kg, po administered once daily 24 days relative to control
Format: functional
Conditions: A549, 576 h, time 24 day, read-out: TGI

SMILES	inhibition in vivo at 100 mg/kg [%]
O=C(Cc1cccc(OC(F)(F)F)c1)Nc1ccc(CCCCc2nnc(NC(=O)Cc3ccccn3)s2)nn1 [TELAGLENASTAT]	34.5

Test system: A549
Assay: Inhibition of colony formation in human A549 cells assessed as reduction of colony number measured after 4 days by crystal violet staining-based colony formation assay
Format: functional, cell-based
Conditions: dose 10-1000 nM, time 4.0 day

SMILES	inhibition
CC(C)OC(=O)c1cccc(CC(=O)Nc2nnc(N[C@@H]3CCN(c4cccnn4)C3)s2)c1	Dose-Dependent Effect

Molecular target: T1, Glutaminase kidney isoform, mitochondrial (Homo sapiens) (UniProt O94925)
T1 sequence (whole entry): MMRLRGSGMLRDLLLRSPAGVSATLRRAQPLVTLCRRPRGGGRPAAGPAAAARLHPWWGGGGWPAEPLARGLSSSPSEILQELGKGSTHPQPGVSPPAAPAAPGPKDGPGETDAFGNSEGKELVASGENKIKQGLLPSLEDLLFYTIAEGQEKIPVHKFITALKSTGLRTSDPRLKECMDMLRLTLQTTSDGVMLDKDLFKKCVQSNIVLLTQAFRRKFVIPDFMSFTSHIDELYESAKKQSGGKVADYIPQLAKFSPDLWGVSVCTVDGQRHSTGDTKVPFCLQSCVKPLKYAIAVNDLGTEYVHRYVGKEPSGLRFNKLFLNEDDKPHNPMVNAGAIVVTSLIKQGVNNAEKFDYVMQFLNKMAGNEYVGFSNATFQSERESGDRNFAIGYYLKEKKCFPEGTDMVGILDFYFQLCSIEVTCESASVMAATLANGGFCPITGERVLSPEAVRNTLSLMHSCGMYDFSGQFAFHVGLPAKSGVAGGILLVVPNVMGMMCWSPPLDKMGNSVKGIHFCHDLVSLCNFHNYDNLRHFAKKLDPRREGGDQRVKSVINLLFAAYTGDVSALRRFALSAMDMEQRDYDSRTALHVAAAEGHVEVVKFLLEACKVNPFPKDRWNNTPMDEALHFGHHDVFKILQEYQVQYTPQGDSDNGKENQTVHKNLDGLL
Assay: Inhibition of human GAC in A549 cells assessed as induction of ROS level incubated for 16 hrs by DCFH-DA staining based flow cytometric analysis
Format: cell-based
Conditions: dose 100-1000 nM

SMILES	inhibition
CC(C)OC(=O)c1cccc(CC(=O)Nc2nnc(N[C@@H]3CCN(c4cccnn4)C3)s2)c1	Dose-Dependent Effect

Molecular target: T1, Glutaminase kidney isoform, mitochondrial (Homo sapiens)
Assay: Inhibition of human GAC in A549 cells assessed as reduction in glutamate level at 100 to 1000 nM incubated for 16 hrs by colorimetric assay
Format: cell-based
Conditions: dose 100-1000 nM

SMILES	inhibition
CC(C)OC(=O)c1cccc(CC(=O)Nc2nnc(N[C@@H]3CCN(c4cccnn4)C3)s2)c1	Active

Test system: A549
Assay: Antiproliferative activity against human A549 cells assessed as reduction in cell viability incubated for 72 hrs by Celltiter-glo assay
Format: functional, cell-based
Conditions: A549, 72 h

SMILES	IC50 [nM]
O=C(Cc1cccc(C(=O)NCCF)c1)Nc1nnc(N[C@@H]2CCN(c3cccnn3)C2)s1	1170
CCOP(=O)(OCC)c1cccc(CC(=O)Nc2nnc(N[C@@H]3CCN(c4cccnn4)C3)s2)c1	889
CO[C@H](C(=O)Nc1nnc(N[C@@H]2CCN(c3cccnn3)C2)s1)c1ccccc1	12.6
O=C(Cc1cccs1)Nc1nnc(N[C@@H]2CCN(c3cccnn3)C2)s1	222
COC(=O)c1ccc(CC(=O)Nc2nnc(N[C@@H]3CCN(c4cccnn4)C3)s2)cc1	47.5
O=C(Cc1cccc(O)c1)Nc1nnc(N[C@@H]2CCN(c3cccnn3)C2)s1	1080
O=C(Cc1ccc(CO)cc1)Nc1nnc(N[C@@H]2CCN(c3cccnn3)C2)s1	1710
CNC(=O)c1cccc(CC(=O)Nc2nnc(N[C@@H]3CCN(c4cccnn4)C3)s2)c1	108
O=C(Cc1ccc(C(=O)O)cc1)Nc1nnc(N[C@@H]2CCN(c3cccnn3)C2)s1	4720
COc1cccc(CC(=O)Nc2nnc(N[C@@H]3CCN(c4cccnn4)C3)s2)c1	60.4
CN(C)C(=O)COC(=O)c1cccc(CC(=O)Nc2nnc(N[C@@H]3CCN(c4cccnn4)C3)s2)c1	> 10000
CN(C)C(=O)c1cccc(CC(=O)Nc2nnc(N[C@@H]3CCN(c4cccnn4)C3)s2)c1	1830
O=C(Cc1cccc(Cc2ccccc2)c1)Nc1nnc(N[C@@H]2CCN(c3cccnn3)C2)s1	13.1
O=C(Cc1cccc(B(O)O)c1)Nc1nnc(N[C@@H]2CCN(c3cccnn3)C2)s1	1180
O=C(Cc1ccccc1)Nc1nnc(N[C@@H]2CCN(c3cccnn3)C2)s1	103
CS(=O)(=O)NC(=O)c1cccc(CC(=O)Nc2nnc(N[C@@H]3CCN(c4cccnn4)C3)s2)c1	> 10000
O=C(Cc1cccc(C(F)(F)F)c1)Nc1nnc(N[C@@H]2CCN(c3cccnn3)C2)s1	60.4
N#Cc1cccc(CC(=O)Nc2nnc(N[C@@H]3CCN(c4cccnn4)C3)s2)c1	736
O=C(Cc1cccc(C(=O)NC2CC(F)(F)C2)c1)Nc1nnc(N[C@@H]2CCN(c3cccnn3)C2)s1	1070
O=C(Cc1cccc(C(=O)OCC2CC2)c1)Nc1nnc(N[C@@H]2CCN(c3cccnn3)C2)s1	51.4
O=C(Cc1cccc(OC(F)(F)F)c1)Nc1nnc(N[C@@H]2CCN(c3cccnn3)C2)s1	1.26

SMILES	IC50 [nM]
O=C(Cc1ccco1)Nc1nnc(N[C@@H]2CCN(c3cccnn3)C2)s1	308
CC1(C)OB(c2cccc(CC(=O)Nc3nnc(N[C@@H]4CCN(c5cccnn5)C4)s3)c2)OC1(C)C	1260
CCOC(=O)c1cccc(CC(=O)Nc2nnc(N[C@@H]3CCN(c4cccnn4)C3)s2)c1	103
O=C(CCc1ccccc1)Nc1nnc(N[C@@H]2CCN(c3cccnn3)C2)s1	744
CC(=O)OCOC(=O)c1cccc(CC(=O)Nc2nnc(N[C@@H]3CCN(c4cccnn4)C3)s2)c1	1090
O=C(Cc1ccc2ccccc2c1)Nc1nnc(N[C@@H]2CCN(c3cccnn3)C2)s1	370
Cc1ccccc1Oc1cccc(CC(=O)Nc2nnc(N[C@@H]3CCN(c4cccnn4)C3)s2)c1	37.1
O=C(Cc1cccc(F)c1)Nc1nnc(N[C@@H]2CCN(c3cccnn3)C2)s1	300
O=C(Cc1cccc(C(=O)O)c1)Nc1nnc(N[C@@H]2CCN(c3cccnn3)C2)s1	732
O=C(Cc1cccc(-c2nnn[nH]2)c1)Nc1nnc(N[C@@H]2CCN(c3cccnn3)C2)s1	> 10000
CCOC(=O)OCOC(=O)c1cccc(CC(=O)Nc2nnc(N[C@@H]3CCN(c4cccnn4)C3)s2)c1	1010
COC(=O)c1cccc(CC(=O)Nc2nnc(N[C@@H]3CCN(c4cccnn4)C3)s2)c1	12.9
O=C(Cc1cccnc1)Nc1nnc(N[C@@H]2CCN(c3cccnn3)C2)s1	498
O=C(Cc1cccc(C(=O)NC2CCC(F)(F)CC2)c1)Nc1nnc(N[C@@H]2CCN(c3cccnn3)C2)s1	1060
O=C(Nc1nnc(N[C@@H]2CCN(c3cccnn3)C2)s1)C1(c2ccccc2)CC1	947
NC(=O)c1cccc(CC(=O)Nc2nnc(N[C@@H]3CCN(c4cccnn4)C3)s2)c1	368
Cc1oc(=O)oc1COC(=O)c1cccc(CC(=O)Nc2nnc(N[C@@H]3CCN(c4cccnn4)C3)s2)c1	5470
O=C(Cc1cccc(OC(F)(F)F)c1)Nc1ccc(CCCCc2nnc(NC(=O)Cc3ccccn3)s2)nn1 [TELAGLENASTAT]	18.8
O=C(Cc1cccc(P(=O)(O)O)c1)Nc1nnc(N[C@@H]2CCN(c3cccnn3)C2)s1	> 10000
O=C(Cc1cccc(C(=O)OCC2CCC2)c1)Nc1nnc(N[C@@H]2CCN(c3cccnn3)C2)s1	13.8
CC(C)OC(=O)c1cccc(CC(=O)Nc2nnc(N[C@@H]3CCN(c4cccnn4)C3)s2)c1	9.28

Molecular target: T1, Glutaminase kidney isoform, mitochondrial (Homo sapiens)
Assay: Inhibition of GAC (unknown origin)
Conditions: not given

SMILES	INH [nM]
O=C(Cc1cccc(C(=O)O)c1)Nc1nnc(N[C@@H]2CCN(c3cccnn3)C2)s1	1.48

Organism: Homo sapiens
Assay: (§1) Inhibition of human recombinant GAC K320A mutant (73 to 598 residues ) expressed in Escherichia coli BL21 (DE3) cells incubated for 10 mins by fluorometric assay
Conditions: not given

SMILES	INH [nM]
O=C(Cc1cccc(C(=O)O)c1)Nc1nnc(N[C@@H]2CCN(c3cccnn3)C2)s1	157

Test system: not listed separately
Assay: as §1
Conditions: not given

SMILES	EC50 [nM]
O=C(Cc1cccc(C(=O)NCCF)c1)Nc1nnc(N[C@@H]2CCN(c3cccnn3)C2)s1	3.13
CCOP(=O)(OCC)c1cccc(CC(=O)Nc2nnc(N[C@@H]3CCN(c4cccnn4)C3)s2)c1	1.55
CO[C@H](C(=O)Nc1nnc(N[C@@H]2CCN(c3cccnn3)C2)s1)c1ccccc1	3.25
O=C(Cc1cccs1)Nc1nnc(N[C@@H]2CCN(c3cccnn3)C2)s1	5.18
COC(=O)c1ccc(CC(=O)Nc2nnc(N[C@@H]3CCN(c4cccnn4)C3)s2)cc1	4.31
O=C(Cc1cccc(O)c1)Nc1nnc(N[C@@H]2CCN(c3cccnn3)C2)s1	1.7
O=C(Cc1ccc(CO)cc1)Nc1nnc(N[C@@H]2CCN(c3cccnn3)C2)s1	12.4
CNC(=O)c1cccc(CC(=O)Nc2nnc(N[C@@H]3CCN(c4cccnn4)C3)s2)c1	4.54
O=C(Cc1ccc(C(=O)O)cc1)Nc1nnc(N[C@@H]2CCN(c3cccnn3)C2)s1	14.2
COc1cccc(CC(=O)Nc2nnc(N[C@@H]3CCN(c4cccnn4)C3)s2)c1	3.31
CN(C)C(=O)COC(=O)c1cccc(CC(=O)Nc2nnc(N[C@@H]3CCN(c4cccnn4)C3)s2)c1	3.15
CN(C)C(=O)c1cccc(CC(=O)Nc2nnc(N[C@@H]3CCN(c4cccnn4)C3)s2)c1	5.36
O=C(Cc1cccc(Cc2ccccc2)c1)Nc1nnc(N[C@@H]2CCN(c3cccnn3)C2)s1	9.3
O=C(Cc1cccc(B(O)O)c1)Nc1nnc(N[C@@H]2CCN(c3cccnn3)C2)s1	5.67
O=C(Cc1ccccc1)Nc1nnc(N[C@@H]2CCN(c3cccnn3)C2)s1	3.42
CS(=O)(=O)NC(=O)c1cccc(CC(=O)Nc2nnc(N[C@@H]3CCN(c4cccnn4)C3)s2)c1	2.63
O=C(Cc1cccc(C(F)(F)F)c1)Nc1nnc(N[C@@H]2CCN(c3cccnn3)C2)s1	6.52
N#Cc1cccc(CC(=O)Nc2nnc(N[C@@H]3CCN(c4cccnn4)C3)s2)c1	2.1
O=C(Cc1cccc(C(=O)NC2CC(F)(F)C2)c1)Nc1nnc(N[C@@H]2CCN(c3cccnn3)C2)s1	8
O=C(Cc1cccc(C(=O)OCC2CC2)c1)Nc1nnc(N[C@@H]2CCN(c3cccnn3)C2)s1	12.9
O=C(Cc1cccc(OC(F)(F)F)c1)Nc1nnc(N[C@@H]2CCN(c3cccnn3)C2)s1	92.8

SMILES	EC50 [nM]
O=C(Cc1ccco1)Nc1nnc(N[C@@H]2CCN(c3cccnn3)C2)s1	7.45
CC1(C)OB(c2cccc(CC(=O)Nc3nnc(N[C@@H]4CCN(c5cccnn5)C4)s3)c2)OC1(C)C	8.2
CCOC(=O)c1cccc(CC(=O)Nc2nnc(N[C@@H]3CCN(c4cccnn4)C3)s2)c1	2.68
O=C(CCc1ccccc1)Nc1nnc(N[C@@H]2CCN(c3cccnn3)C2)s1	68.3
CC(=O)OCOC(=O)c1cccc(CC(=O)Nc2nnc(N[C@@H]3CCN(c4cccnn4)C3)s2)c1	3.56
O=C(Cc1ccc2ccccc2c1)Nc1nnc(N[C@@H]2CCN(c3cccnn3)C2)s1	26.1
Cc1ccccc1Oc1cccc(CC(=O)Nc2nnc(N[C@@H]3CCN(c4cccnn4)C3)s2)c1	37.5
O=C(Cc1cccc(F)c1)Nc1nnc(N[C@@H]2CCN(c3cccnn3)C2)s1	2.37
O=C(Cc1cccc(C(=O)O)c1)Nc1nnc(N[C@@H]2CCN(c3cccnn3)C2)s1	1.89
O=C(Cc1cccc(-c2nnn[nH]2)c1)Nc1nnc(N[C@@H]2CCN(c3cccnn3)C2)s1	3.66
CCOC(=O)OCOC(=O)c1cccc(CC(=O)Nc2nnc(N[C@@H]3CCN(c4cccnn4)C3)s2)c1	3.74
COC(=O)c1cccc(CC(=O)Nc2nnc(N[C@@H]3CCN(c4cccnn4)C3)s2)c1	0.793
O=C(Cc1cccnc1)Nc1nnc(N[C@@H]2CCN(c3cccnn3)C2)s1	9.01
O=C(Cc1cccc(C(=O)NC2CCC(F)(F)CC2)c1)Nc1nnc(N[C@@H]2CCN(c3cccnn3)C2)s1	4.26
O=C(Nc1nnc(N[C@@H]2CCN(c3cccnn3)C2)s1)C1(c2ccccc2)CC1	> 1000
NC(=O)c1cccc(CC(=O)Nc2nnc(N[C@@H]3CCN(c4cccnn4)C3)s2)c1	2.16
Cc1oc(=O)oc1COC(=O)c1cccc(CC(=O)Nc2nnc(N[C@@H]3CCN(c4cccnn4)C3)s2)c1	3.8
O=C(Cc1cccc(OC(F)(F)F)c1)Nc1ccc(CCCCc2nnc(NC(=O)Cc3ccccn3)s2)nn1 [TELAGLENASTAT]	16.4
O=C(Cc1cccc(P(=O)(O)O)c1)Nc1nnc(N[C@@H]2CCN(c3cccnn3)C2)s1	9.68
O=C(Cc1cccc(C(=O)OCC2CCC2)c1)Nc1nnc(N[C@@H]2CCN(c3cccnn3)C2)s1	9.89
CC(C)OC(=O)c1cccc(CC(=O)Nc2nnc(N[C@@H]3CCN(c4cccnn4)C3)s2)c1	4.03
